For 1 compound, IC50 and pKa results are on record in article PMC7726444 (Frontiers in Pharmacology, 2020).

One series deals with T1, WT full-length TPH2 (Homo sapiens, UniProt Q8IWU9).
T1 construct: both the doubly truncated TPH1 protein and WT full-length TPH2 protein; made in house
T1 sequence (Q8IWU9 1-490): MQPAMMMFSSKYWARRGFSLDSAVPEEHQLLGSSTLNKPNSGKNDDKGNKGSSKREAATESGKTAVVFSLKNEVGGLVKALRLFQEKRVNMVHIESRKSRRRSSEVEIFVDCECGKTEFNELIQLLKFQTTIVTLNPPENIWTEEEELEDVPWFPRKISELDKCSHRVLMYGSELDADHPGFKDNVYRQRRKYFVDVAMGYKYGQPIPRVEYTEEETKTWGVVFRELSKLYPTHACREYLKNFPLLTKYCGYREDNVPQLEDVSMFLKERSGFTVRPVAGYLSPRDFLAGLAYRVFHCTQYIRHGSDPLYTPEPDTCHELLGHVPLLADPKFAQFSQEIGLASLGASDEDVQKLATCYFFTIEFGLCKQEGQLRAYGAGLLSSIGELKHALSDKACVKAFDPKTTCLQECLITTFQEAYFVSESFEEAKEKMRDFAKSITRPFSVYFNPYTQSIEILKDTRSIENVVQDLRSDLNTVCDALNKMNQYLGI
Put plainly: Tryptophan hydroxylase enzymatic activity assay, WT full-length TPH2. It is filed as biochemical. The settings on record: mean (95% confidence interval), three experiments in duplicate.

Another series concerns the target T2, MAO-A (Homo sapiens, UniProt P21397).
T2 construct: purchased BioVision, Inc, Milpitas, CA
T2 sequence (P21397 1-527): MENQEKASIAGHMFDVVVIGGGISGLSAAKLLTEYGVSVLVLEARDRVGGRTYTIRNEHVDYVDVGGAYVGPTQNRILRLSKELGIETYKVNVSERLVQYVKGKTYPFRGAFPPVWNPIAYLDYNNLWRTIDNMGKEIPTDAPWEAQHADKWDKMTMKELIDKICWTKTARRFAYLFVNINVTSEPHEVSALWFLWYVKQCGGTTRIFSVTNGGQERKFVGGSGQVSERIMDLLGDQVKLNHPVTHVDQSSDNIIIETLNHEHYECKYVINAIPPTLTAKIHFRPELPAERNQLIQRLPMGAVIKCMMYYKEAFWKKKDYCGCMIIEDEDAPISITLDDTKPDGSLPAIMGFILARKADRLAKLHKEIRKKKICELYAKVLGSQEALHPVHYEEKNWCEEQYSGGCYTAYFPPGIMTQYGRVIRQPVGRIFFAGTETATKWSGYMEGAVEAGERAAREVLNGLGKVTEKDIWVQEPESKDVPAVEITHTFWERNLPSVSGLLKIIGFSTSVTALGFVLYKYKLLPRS
Put plainly: MAO-A enzymatic activity assay (MAO-A Inhibitor Screening Kit, fluorimetric detection of H2O2). It is filed as biochemical. The following applies: 25°C, 15 min kinetic read; mean (95% confidence interval), three experiments. How it is done: The experiments were conducted following the manufacturer’s (BioVision, Inc, Milpitas, CA) instructions and were based on the fluorimetric detection of H2O2, a byproduct of the enzymatic activity of MAO-A, by measuring the fluorescence (Excitation/Emission at 535/587 nm) kinetically at 25°C for 15 min using a Tecan Spark plate reader (Tecan Group Ltd, Männedorf, Switzerland).
Relative inhibition of MAO-A was calculated as a percentage using the following Eq. 2: %Relative inhibition=((Slope of EC−Slope of S)/Slope of EC)×100 (2)
The slopes for all samples, either containing Enzyme Control (EC) or test substance (S), were calculated by dividing the net change in relative fluorescence units (ΔRFU; RFU2–RFU1) by the time interval (Δt; t2 –t1).

The target in the next series is T3, full-length WT TPH1 (Homo sapiens, UniProt P17752).
T3 construct: made in house
T3 sequence (P17752 1-444): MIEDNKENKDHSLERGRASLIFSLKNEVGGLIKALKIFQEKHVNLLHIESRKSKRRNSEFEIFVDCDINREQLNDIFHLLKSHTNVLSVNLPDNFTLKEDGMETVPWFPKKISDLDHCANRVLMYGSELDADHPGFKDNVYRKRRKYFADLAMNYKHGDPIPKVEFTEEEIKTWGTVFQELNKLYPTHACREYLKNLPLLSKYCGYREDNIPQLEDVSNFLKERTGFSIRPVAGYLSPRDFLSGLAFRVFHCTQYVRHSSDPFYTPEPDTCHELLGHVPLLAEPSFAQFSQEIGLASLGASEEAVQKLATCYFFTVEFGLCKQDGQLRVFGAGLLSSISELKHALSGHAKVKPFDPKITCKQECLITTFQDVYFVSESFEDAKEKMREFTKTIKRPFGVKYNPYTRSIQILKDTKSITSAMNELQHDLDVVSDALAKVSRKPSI
Put plainly: Tryptophan hydroxylase enzymatic activity assay, full-length WT TPH1. The following applies: (95% confidence interval). The series is classed as biochemical. From the text:
The […] human TPH1 gene was cloned into the pET23a vector (six-His C-terminal fusion; Merck KGaA, Darmstadt, Germany) between the NdeI and XhoI restriction sites, and expressed and purified as described previously ([Wang et al., 2002]; [Betari et al., 2020]). Truncated TPH1 was used since the full-length enzyme tends to aggregate in bacteria and yeast extracts and during purification ([Wang et al., 2002]; [McKinney et al., 2005]), resulting in a much lower protein yield compared to the truncated version. Enzymatic activity of truncated TPH1 is equal to that of the full-length protein ([Betari et al., 2020]). […] Full-length WT TPH1 and TPH2 were expressed as N-terminal six-His-maltose-binding protein fusion proteins in pETM-41 and were cleaved and purified as described previously ([McKinney et al., 2004]; [Winge et al., 2007]). Human WT PAH and TH were expressed and isolated as described previously ([[…] et al., 2012]; [Bezem et al., 2016]). […] Control experiments were performed in the presence of 1% DMSO in the absence of ligand. […] 5-hydroxy tryptophan (5-OH-Trp) was quantified using High Performance Liquid Chromatography (HPLC) essentially as described previously with minor modifications ([McKinney et al., 2004]; [[…] et al., 2020]).

On the set-up of series [1]: method as in Wu and Delamere, 1997. The following applies: dissociation of the protonated pyridine nitrogen; ref Wu and Delamere, 1997; cited from earlier work.

Take `COc1ccc2[nH]c([S+]([O-])Cc3ncc(C)c(OC)c3C)nc2c1` (stereo not shown) [Omeprazole]: the results for the IC50 against WT full-length TPH2, against MAO-A and against full-length WT TPH1 were 4.3 µM, 89.4 µM and 3.55 µM, respectively. Also, the pKa (usually the negative logarithm of the acid dissociation constant) in series [1] was 7.1.
